ChEMBL document CHEMBL1201862, “PubChem BioAssay data set” (2004)
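Where inhibition never reached the appropriate level, the endpoint shown equals the highest concentration tested. Otherwise, values were interpolated linearly from a five-concentration, 48-hour dose response in 96-well plates. The concentration for 50% growth inhibition is given as GI50.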 Activity calls are given as the source filed them. No stated cut-off is given here; in the data, active = GI50 up to about 1.1 µM and inactive = higher.

Assays:
Experiment in all cases: DTP human tumour cell line panel, 48 h
[1] = test system: HOP-92
[2] = test system: U-251
[3] = test system: SF-295
[4] = test system: SK-MEL-28
[5] = test system: SNB-75
[6] = test system: SK-OV-3
[7] = test system: HT-29
[8] = test system: COLO 205
[9] = test system: SW-620
[10] = test system: SF-268
[11] = test system: KM-20L2
[12] = test system: SF-539
[13] = test system: LXFL 529
[14] = test system: UACC-257
[15] = test system: OVCAR-8
[16] = test system: HOP-62
[17] = test system: HCT-116
[18] = test system: OVCAR-4
[19] = test system: 786-0
[20] = test system: KM12
[21] = test system: MOLT-4
[22] = test system: M19-MEL
[23] = test system: SNB-19
[24] = test system: TK-10
[25] = test system: OVCAR-3
[26] = test system: LOX IMVI
[27] = test system: NCI-H23
[28] = test system: M14
[29] = test system: SNB-78
[30] = test system: OVCAR-5
[31] = test system: ACHN
[32] = test system: UO-31
[33] = test system: DLD-1
[34] = test system: A549
[35] = test system: NCI-H460
[36] = test system: NCI-H226
[37] = test system: K562
[38] = test system: NCI-H522
[39] = test system: UACC-62
[40] = test system: IGROV-1
[41] = test system: HCT-15
[42] = test system: BT-549
[43] = test system: SK-MEL-2
[44] = test system: HL-60
[45] = test system: CCRF-CEM
[46] = test system: NCI/ADR-RES
[47] = test system: DU-145
[48] = test system: EKVX
[49] = test system: MDA-N
[50] = test system: Hs-578T
[51] = test system: RXF 393
[52] = test system: PC-3
[53] = test system: HCC 2998
[54] = test system: MDA-MB-231
[55] = test system: T47D
[56] = test system: CAKI-1
[57] = test system: MDA-MB-435
[58] = test system: SN12C
[59] = test system: SK-MEL-5
[60] = test system: A498
[61] = test system: SR
[62] = test system: MCF7
[63] = test system: Malme-3M
[64] = test system: RPMI-8226

Oc1ccccc1-c1nnc(S)n1/N=C/c1ccc(-c2ccc(Br)cc2)o1
GI50 [1]: 18.4 µM (inactive)
GI50 [2]: 25.9 µM (inactive)
GI50 [3]: 60.4 µM (inactive)
GI50 [4]: 56.5 µM (inactive)
GI50 [5]: 32.7 µM (inactive)
GI50 [6]: 31 µM (inactive)
GI50 [7]: 51.3 µM (inactive)
GI50 [8]: 39.6 µM (inactive)
GI50 [9]: 38.6 µM (inactive)
GI50 [10]: 40.3 µM (inactive)
GI50 [11]: 35.5 µM (inactive)
GI50 [12]: 33 µM (inactive)
GI50 [13]: 22 µM (inactive)
GI50 [14]: 24.3 µM (inactive)
GI50 [15]: 34 µM (inactive)
GI50 [16]: 29.9 µM (inactive)
GI50 [17]: 33.7 µM (inactive)
GI50 [18]: 15.6 µM (inactive)
GI50 [19]: 39.2 µM (inactive)
GI50 [20]: 34.7 µM (inactive)
GI50 [21]: 25.4 µM (inactive)
GI50 [22]: 42.5 µM (inactive)
GI50 [23]: 24.4 µM (inactive)
GI50 [24]: 15.2 µM (inactive)
GI50 [25]: 24.2 µM (inactive)
GI50 [26]: 23.7 µM (inactive)
GI50 [27]: 20.5 µM (inactive)
GI50 [28]: 41.7 µM (inactive)
GI50 [29]: 23.6 µM (inactive)
GI50 [30]: > 100 µM (inactive)
GI50 [31]: 29.6 µM (inactive)
GI50 [32]: 28 µM (inactive)
GI50 [33]: 34 µM (inactive)
GI50 [34]: 48.1 µM (inactive)
GI50 [35]: 95.9 µM (inactive)
GI50 [36]: 22.9 µM (inactive)
GI50 [37]: 32.1 µM (inactive)
GI50 [38]: 60.4 µM (inactive)
GI50 [39]: 13.1 µM (inactive)
GI50 [40]: 29.2 µM (inactive)

O=C(O)C(CSC(c1ccccc1)(c1ccccc1)c1ccccc1)/N=C/c1cccs1 (centres undefined)
GI50 [41]: 4.24 µM
GI50 [1]: 14.6 µM (inactive)
GI50 [42]: 4.97 µM (inactive)
GI50 [43]: 2.06 µM (inactive)
GI50 [44]: 2.54 µM (inactive)
GI50 [45]: 1.87 µM (inactive)
GI50 [2]: 2 µM (inactive)
GI50 [46]: 14 µM (inactive)
GI50 [3]: 1.26 µM (inactive)
GI50 [47]: 3.85 µM (inactive)
GI50 [4]: 7.48 µM (inactive)
GI50 [48]: 5.42 µM (inactive)
GI50 [5]: 5.48 µM (inactive)
GI50 [49]: 0.357 µM (active)
GI50 [50]: 3.2 µM (inactive)
GI50 [6]: 0.968 µM (active)
GI50 [7]: 2.96 µM (inactive)
GI50 [8]: 1.69 µM (inactive)
GI50 [9]: 1.76 µM (inactive)
GI50 [51]: 2.07 µM (inactive)
GI50 [10]: 2.42 µM (inactive)
GI50 [12]: 1.27 µM (inactive)
GI50 [14]: 4.13 µM (inactive)
GI50 [52]: 1.89 µM (inactive)
GI50 [15]: 2.55 µM (inactive)
GI50 [53]: 2.06 µM (inactive)
GI50 [54]: 1.57 µM (inactive)
GI50 [16]: 5.62 µM (inactive)
GI50 [17]: 0.468 µM (active)
GI50 [18]: 15.1 µM (inactive)
GI50 [55]: 3.37 µM (inactive)
GI50 [19]: 1.17 µM (inactive)
GI50 [20]: 2.78 µM (inactive)
GI50 [21]: 4.19 µM (inactive)
GI50 [56]: 7.46 µM (inactive)
GI50 [57]: 0.324 µM (active)
GI50 [23]: 2.42 µM (inactive)
GI50 [58]: 3.27 µM (inactive)
GI50 [24]: 10.8 µM (inactive)
GI50 [25]: 2.31 µM (inactive)
GI50 [26]: 4.34 µM (inactive)
GI50 [27]: 4.94 µM (inactive)
GI50 [28]: 0.378 µM (active)
GI50 [59]: 0.484 µM (active)
GI50 [60]: 30.3 µM (inactive)
GI50 [30]: 5.45 µM (inactive)
GI50 [31]: 12.8 µM (inactive)
GI50 [32]: 17.7 µM (inactive)
GI50 [34]: 3.95 µM (inactive)
GI50 [61]: 4.42 µM (inactive)
GI50 [62]: 0.853 µM (active)
GI50 [35]: 3.16 µM (inactive)
GI50 [36]: 9.12 µM (inactive)
GI50 [63]: 3.6 µM (inactive)
GI50 [37]: 3.54 µM (inactive)
GI50 [38]: 1.16 µM (inactive)
GI50 [39]: 1.17 µM (inactive)
GI50 [40]: 1.95 µM (inactive)
GI50 [64]: 2.45 µM (inactive)
